According to US8921426B2, “Cationic bis-urea compounds as effective antimicrobial agents” (International Business Machines Corporation, priority 2012, dated 2014):
In brackets after ≈: the same amount, converted by molar mass. Entries after “also recorded” stand apart in the source; their conditions may differ. Where two headings read alike, the source gives them in different places.

Legend:
[1] = Critical micelle concentration (CMC) by intensity of scattered light; format: physicochemical; settings: cationic bis-urea compounds; stock diluted using DI water
Procedure: The intensity of scattered light (in kilo counts per second) was recorded as a function of cationic compounds concentration ranging from 0.0 to 250.0 mg/L. A stock polymer solution was prepared with a concentration of 1000.0 mg/L, and diluted using DI water to various concentrations. The intensity of scattered light was plotted against polymer concentration. The CMC value was taken from the intersection of the tangent to the curve at the inflection with the horizontal tangent through the points at low concentrations.

[2] = Zeta potential (Zetasizer); format: physicochemical; settings: cationic bis-urea compounds, 1000 mg/L; method names PBS pH 7.4 and DI water, table does not say which
Procedure: The zeta potential of the cationic compounds in phosphate-buffered saline (PBS, pH 7.4) and deionized (DI) water was measured by Zetasizer 3000 HAS (Malvern Instrument Ltd., Malvern, UK) equipped with a He—Ne laser beam at […] (scattering angle: 90°). The concentration of cationic compounds was 1000 mg/L. Each measurement was repeated 5 times. An average value was obtained from the five measurements.

[3] = system: Bacillus subtilis (B. subtilis) (ATCC No. 23857); assay: MIC, broth microdilution, B. subtilis; format: cell-based; settings: ATCC23857, TSB, 37° C., 18 hours
Procedure: (§1) The minimum inhibitory concentration (MIC) of each of the cationic compounds was measured using a broth microdilution method. The cationic compound were dissolved in DI water at a concentration of 2500 mg/L. The samples were further diluted to 31.25, 62.5, 125, 250.0, 500.0 and 1000.0 mg/L using TSB or YMB. The B. subtilis cells were grown in TSB overnight in an incubator at 37° C. The C. albicans cells were grown in YMB at room temperature. The optical density of the bacterial solution was adjusted to OD600 nm=0.07 to 0.08 by the addition of TSB or YMB. This bacterial solution was further diluted 1000 times. Cationic compound solution (100 microliters) was transferred to each well of 96 well plates (NUNC), followed by the addition of 100 microliters of the bacterial solution. TSB or YMB was used as control. B. subtilis cells were incubated at 37° C. overnight in TSB. C. albicans cells were cultured in YMB at room temperature. C. neoformans were inoculated in MHB broth and grew overnight at 37° C. with shaking at 250 rpm. The optical density readings of bacterial solutions were monitored by measuring OD600nm in predetermined times (0 hours and 18 hours for B. subtilis while 0 hours and 24 hours for C. albicans). The assay was performed in four replicates for each sample and the experiments were repeated at least three times.

[4] = system: Candida albicans (C. albicans) (ATCC No. 10231); assay: MIC, broth microdilution, C. albicans; format: cell-based; settings: for MIC: Candida albicans, read-out: MIC C. albicans
Procedure: as §1

rat red blood cells = assay: Hemolysis of rat red blood cells; format: cell-based; settings: one hour at 37° C.
Procedure: Fresh rat blood cells were washed with PBS three times. 100 microliters of red blood cell suspension in PBS (4% in volume) was introduced to each well of a 96 well-plate and 100 microliters of cationic compound solution was then added to the well. PBS and TRITON X-100 (0.2%) were used as control. The plates were incubated for one hour at 37° C. The 96 well plates were centrifuged at 4000 rpm for 5 minutes. Aliquots (100 microliters) of the supernatant were transferred to a new 96 well plate. Hemoglobin release was measured at 576 nm using a microplate reader (TECAN). The red blood cells in PBS were used as a negative control. Absorbance of wells with red cells lysed with 0.2% TRITON X-100 was taken as 100% hemolysis. Percentage of hemolysis was calculated using the following formula (OD576nm=optical density at 576 nm): Hemolysis (%)=[(OD576nm of the sample−OD576nm of PBS)/(OD576nm of 0.2% TRITON X-100−OD576nm of PBS)×100. The data were expressed as mean and standard deviation of four replicates and the tests were repeated three times.

[5] = system: primary human dermal fibroblasts; assay: MTT cytotoxicity assay; format: cell-based; settings: 24 hours at 37° C.
Procedure: The cytotoxicity tests of the cationic bis-urea compounds were performed in primary human fibroblasts using MTT assay. The cells were cultured in DMEM supplemented with 10% FBS, 5% penicillin, 2 mM L-glutamine (Sigma) and incubated at 37° C., 5% CO2. The cells were seeded onto 96-well plates at a density of 10,000 cells per well and incubated for one day. Cationic compounds were diluted with the growth medium to give final concentrations of 31.25, 62.5, 125, 250.0, 500.0, 1000.0 and 2500.0 mg/L. The media were replaced with 100 microliters of the pre-prepared samples. The plates were then returned to the incubator and maintained in 5% CO2 at 37° C. for 24 hours. Fresh growth media (100 microliters) containing 10% MTT solution (5 mg/mL) were used to replace the mixture in each well after 24 hours. The plates were then returned to the incubator and maintained in 5% CO2 at 37° C. for a further 4 hours. The growth medium and excess MTT in each well were then removed. DMSO (150 microliters) was then added to each well to dissolve the internalized purple formazan crystals. An aliquot of 100 microliters was taken from each well and transferred to a fresh 96-well plate. Each sample was tested in eight replicates per plate. The plates were then assayed at 550 nm and 690 nm. The absorbance readings of the formazan crystals were taken to be the absorbance at 550 nm minus the absorbance at 690 nm. The results were expressed as a percentage of the absorbance of the blank control.

C. albicans = assay: Killing efficiency, spread plate method, C. albicans; format: cell-based, Candida albicans; settings: for killing of C. albicans cells: 24 hour treatment
Procedure: (§2) Antimicrobial activities of cationic compounds were also tested through a spread plate method. B. subtilis and C. albicans were treated at half MIC, MIC and 2×MIC concentrations of cationic compounds. At predetermined time (18 hours for B. subtilis and 24 hours for C. albicans and C. neoformans), microbial suspensions were withdrawn, diluted sequentially, and then plated on 1.5% lysogeny broth (LB) agar plates. The plates were incubated for 24 hours at 37° C. (48 hours at room temperature for C. albicans). Microbial colonies were formed and counted. The results are expressed as % kill=(cell count of control−survivor count of samples)/cell count of control×100. The experiments were performed in triplicate and were repeated three times.

B. subtilis = assay: Killing efficiency, spread plate method, B. subtilis; format: cell-based, Bacillus subtilis; settings: 18 hour treatment
Procedure: as §2

[6] = system: Cryptococcus neoformans (C. neoformans); assay: MIC, broth microdilution, C. neoformans; format: cell-based; settings: for MIC: Cryptococcus neoformans, read-out: MIC C. neoformans
Procedure: as §1

C. neoformans cells = assay: TEM of C. neoformans cells before and after treatment; format: cell-based, Cryptococcus neoformans; settings: 8 hours, FIG. 7B
Procedure: The morphology of the C. neoformans before and after treatment with cationic compound CBU2 was observed under a JEM-1230 TEM (JEOL, Japan) using an acceleration voltage of 80 keV. The C. neoformans (1.5 mL) was incubated with 0.5 mL of CBU2 solution for 8 hours. The solution was then centrifuged at 4000 rpm for 10 minutes, and the supernatant removed. The […] was washed with PBS twice and then fixed in formalin solution containing 2.5% glutaraldehyde overnight. The sample was then washed by PBS three times (15 minutes each) and then post fixed with 1% OsO4 in phosphate buffer (pH 7.0) for one hour. The fixed samples were washed in phosphate buffer three times (15 minutes each), followed by dehydration in a graded ethanol series. The samples were incubated with the mixtures of acetone and Spun resin (1:1 in volume) for one hour at room temperature, and then transferred to 1:3 mixture of acetone and Spun resin for 3 hours, and to Spun resin overnight. Ultrathin sections (70-90 nm) were cut using a Reichert-Jung Ultracut E ultramicrotome, and post-stained with uranyl acetate and lead citrate for 15 minutes each prior to TEM observations. Spun resin can be prepared from a kit by combining 3,4 epoxy cyclohexyl methyl 3,4 epoxy cyclohexyl carboxylate (ERL-4221 resin from Polysciences) (10.0 g), nonenylsuccinic anhydride (26.0 g), and dimethylaminoethanol (0.4 g).

[7] = ATCC10231, YMB, room temperature, 24 hours
[8] = 24 hours, 1.0 and 2.0 times the MIC (FIG. 4A)
[9] = up to a concentration of 1000 mg/L

MIC [3] [µg/mL]	MIC [4, 7] [µg/mL]	MIC ([6]; MHB broth, 37° C.) [µg/mL]	Compound	CMC [1] [mg/L]	Zeta Potential [2] [mV]	HC50 (concentration that induces 50% hemolysis of rat red blood cells) (rat red blood cells)	cell viability of primary human fibroblasts ([5]; up to a concentration of 250 mg/L)	killing of C. albicans cells (C. albicans; about 500 mg/L) [%]	killing of B. subtilis cells (B. subtilis; about 500 mg/L) [%]	activity against C. albicans (in words) [4]	activity against C. neoformans (in words) [6]	killing efficiency against C. albicans (C. albicans; 31.2 mg/L, by 1 hour of incubation (FIG. 5)) [%]	killing efficiency against C. albicans (C. albicans; [8]) [%]	killing of C. albicans cells (C. albicans; about 31.2 mg/L) [%]	killing of B. subtilis cells (B. subtilis; about 125 mg/L) [%]	cell membrane morphology after treatment (TEM) (C. neoformans cells)	cell viability of primary human fibroblasts [5, 9]	killing of C. albicans cells (C. albicans; about 125 mg/L) [%]	MIC ([4]; ATCC10231, 24 h) [µg/mL]	MIC [6] [µg/mL]
500	500	–	C[N+](C)(C)CCCNC(=O)Nc1ccc(CNC(=O)c2ccc(C(=O)NCc3ccc(NC(=O)NCCC[N+](C)(C)C)cc3)cc2)cc1.[I-].[I-] [CBU1]	170.0	47.0	>>2500 mg/L	About 60%	99	100	–	–	–	–	–	–	–	–	–	–	–
125 (≈ 207 µM)	31.2 (≈ 51.8 µM)	62.5 (≈ 104 µM)	NCCCCNC(=O)Nc1ccc(CNC(=O)c2ccc(C(=O)NCc3ccc(NC(=O)NCCCCN)cc3)cc2)cc1 [CBU2]	20.0	36.7	>>1000 mg/L	–	–	–	highly active; also recorded: more active	highly active	100	100	100	100	ruptured and show loss of intracellular material	–	–	–	–
125	250	–	C[N+](C)(C)CCCNC(=O)Nc1ccc(NC(=O)c2ccc(C(=O)Nc3ccc(NC(=O)NCCC[N+](C)(C)C)cc3)cc2)cc1.[I-].[I-] [CBU3]	110.0	32.8	>>2500 mg/L	–	–	–	–	–	–	100	–	–	–	More than 80%	99.9	–	–

Further lines, the molecule ahead of its results:

Compound	MIC [3] [µg/mL]	MIC [4, 7] [µg/mL]	MIC ([6]; MHB broth, 37° C.) [µg/mL]	CMC [1] [mg/L]	Zeta Potential [2] [mV]	HC50 (concentration that induces 50% hemolysis of rat red blood cells) (rat red blood cells)	cell viability of primary human fibroblasts ([5]; up to a concentration of 250 mg/L)	killing of C. albicans cells (C. albicans; about 500 mg/L) [%]	killing of B. subtilis cells (B. subtilis; about 500 mg/L) [%]	activity against C. albicans (in words) [4]	activity against C. neoformans (in words) [6]	killing efficiency against C. albicans (C. albicans; 31.2 mg/L, by 1 hour of incubation (FIG. 5)) [%]	killing efficiency against C. albicans (C. albicans; [8]) [%]	killing of C. albicans cells (C. albicans; about 31.2 mg/L) [%]	killing of B. subtilis cells (B. subtilis; about 125 mg/L) [%]	cell membrane morphology after treatment (TEM) (C. neoformans cells)	cell viability of primary human fibroblasts [5, 9]	killing of C. albicans cells (C. albicans; about 125 mg/L) [%]	MIC ([4]; ATCC10231, 24 h) [µg/mL]	MIC [6] [µg/mL]
NCCNC(=O)Nc1ccc(CNC(=O)c2ccc(C(=O)NCc3ccc(NC(=O)NCCN)cc3)cc2)cc1 [CBU5]	–	–	–	100.00	32.2	>>1000 mg/L	–	–	–	highly active; also recorded: more active	highly active	–	–	–	–	–	About 80%	–	62.5 (≈ 114 µM)	125 (≈ 229 µM)
NCCCCCCNC(=O)Nc1ccc(CNC(=O)c2ccc(C(=O)NCc3ccc(NC(=O)NCCCCCCN)cc3)cc2)cc1 [CBU6]	–	–	–	15.0	35.3	>>1000 mg/L	–	–	–	highly active; also recorded: more active	highly active	–	–	–	–	–	About 80%	–	31.2 (≈ 47.4 µM)	62.5 (≈ 94.9 µM)
NCc1ccc(CNC(=O)Nc2ccc(CNC(=O)c3ccc(C(=O)NCc4ccc(NC(=O)NCc5ccc(CN)cc5)cc4)cc3)cc2)cc1 [CBU7]	–	–	–	12.0	45.1	>>1000 mg/L	–	–	–	highly active; also recorded: more active	highly active	–	–	–	–	–	–	–	31.2 (≈ 44.6 µM)	31.2 (≈ 44.6 µM)
